Reference: patent US10654834B2 (Venenum Biodesign, LLC, priority 2016, dated 2020)
pEC50: −log10 of the molar value.

Experiments:
mouse TGR5 receptor = target: T1, mouse TGR5 receptor (Mus musculus, UniProt Q80SS6); experiment: Mouse TGR5 HTRF cAMP production assay (HEK293-EBNA cells, Cisbio cAMP HiRange kit); format: cell-based; settings: HEK293-EBNA cells overexpressing mouse TGR5, HTRF cAMP assay
T1 construct: host or cells: HEK293-EBNA (293 c18, ATCC CRL10852)
T1 sequence (Q80SS6 1-329): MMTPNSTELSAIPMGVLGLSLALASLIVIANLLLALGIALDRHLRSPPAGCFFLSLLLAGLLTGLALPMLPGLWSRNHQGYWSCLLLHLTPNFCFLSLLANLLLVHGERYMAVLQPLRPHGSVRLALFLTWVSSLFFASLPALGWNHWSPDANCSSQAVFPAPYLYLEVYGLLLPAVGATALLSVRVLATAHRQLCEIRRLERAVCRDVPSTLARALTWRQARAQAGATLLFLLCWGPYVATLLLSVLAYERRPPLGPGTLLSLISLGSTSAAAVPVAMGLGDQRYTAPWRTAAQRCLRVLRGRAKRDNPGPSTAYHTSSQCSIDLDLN
Method in brief: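 HEK293-EBNA cells stably expressing mouse TGR5 (episomal vector) were suspended in serum-free DMEM with 500 μM IBMX and exposed to 12-point half-log compound dilutions for 1 h at room temperature. cAMP was detected by HTRF (d2-cAMP/anti-cAMP cryptate, 1 h, room temperature), giving EC50 from duplicates.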

[1] = Pharmacokinetic profile in mice after oral gavage; format: in vivo, mouse; settings: mouse; fasted male Hilltop mice, 10 mg/kg oral gavage, plasma; read-out: Cmax
Method in brief: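 Fasted 8-week male Hilltop mice given 10 mg/kg orally in 20% PEG400/80% 0.5% CMC + 0.25% Tween-80. EDTA plasma sampled 0-4 h, measured by LC-MS/MS (MRM, positive ion); Cmax and AUC derived non-compartmentally, values being means of three mice.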

Row | pEC50 (mouse TGR5 receptor) | Cmax [1] [ng/mL] | Structure (SMILES)
1 | > 7.00 | 7.6 | N#Cc1ccc(CCNC(=O)[C@@H]2CCN2c2cc(N3CCC(CCCC(=O)NCS(=O)(=O)O)CC3)nc(C(F)(F)F)n2)cc1 [Compound 250, (S)-(4-(1-(6-(2-((4-cyanophenethyl)carbamoyl)azetidin-1-yl)-2-(trifluoromethyl)pyrimidin-4-yl)piperidin-4-yl)butanamido)methanesulfonic acid]
2 | > 7.00 | 53 | COc1cc(C(F)(F)F)ccc1CCNC(=O)[C@@H]1CCN1c1cc(N2CCC(CCC(=O)O)CC2)nc(C(F)(F)F)n1 [Compound 239, (S)-3-(1-(6-(2-((2-methoxy-4-(trifluoromethyl)phenethyl)carbamoyl)azetidin-1-yl)-2-(trifluoromethyl)pyrimidin-4-yl)piperidin-4-yl)propanoic acid]
3 | > 7.00 | 28 | N#Cc1ccc(CCNC(=O)[C@@H]2CCN2c2cc(N3CCC(CCCC(=O)O)CC3)nc(C(F)(F)F)n2)cc1 [Compound 231, (S)-4-(1-(6-(2-((4-cyanophenethyl)carbamoyl)azetidin-1-yl)-2-(trifluoromethyl)pyrimidin-4-yl)piperidin-4-yl)butanoic acid]
4 | > 7.00 | 4.3 | O=C(CCCC1CCN(c2cc(N3CCC[C@H]3C(=O)NCCc3ccc(C(F)(F)F)cc3)nc(C(F)(F)F)n2)CC1)NCCCS(=O)(=O)O [Compound 60, (S)-3-(4-(1-(2-(trifluoromethyl)-6-(2-((4-(trifluoromethyl)phenethyl)carbamoyl)pyrrolidin-1-yl)pyrimidin-4-yl)piperidin-4-yl)butanamido)propane-1-sulfonic acid]
5 | > 7.00 | 11 | N#Cc1ccc(CCNC(=O)[C@@H]2CCN2c2cc(N3CCC(CCNc4c(NCCS(=O)(=O)O)c(=O)c4=O)CC3)nc(C(F)(F)F)n2)cc1 [Compound 297, (S)-2-((2-((2-(1-(6-(2-((4-cyanophenethyl)carbamoyl)azetidin-1-yl)-2-(trifluoromethyl)pyrimidin-4-yl)piperidin-4-yl)ethyl)amino)-3,4-dioxocyclobut-1-en-1-yl)amino)ethanesulfonic acid]
6 | > 7.00 | 3.2 | N#Cc1ccc(CCNC(=O)[C@@H]2CCN2c2cc(N3CCC(CCNC(=O)NCCS(N)(=O)=O)CC3)nc(C(F)(F)F)n2)cc1 [Compound 269, (S)—N-(4-cyanophenethyl)-1-(6-(4-(2-(3-(2-sulfamoylethyl)ureido)ethyl)piperidin-1-yl)-2-(trifluoromethyl)pyrimidin-4-yl)azetidine-2-carboxamide]
7 | > 7.00 | 143 | N#Cc1ccc(CCNC(=O)[C@@H]2CCCN2c2cc(N3CCC(CCCC(=O)O)CC3)cc(C(F)(F)F)n2)cc1 [Compound 197, (S)-4-(1-(2-(2-((4-cyanophenethyl)carbamoyl)pyrrolidin-1-yl)-6-(trifluoromethyl)pyridin-4-yl)piperidin-4-yl)butanoic acid]
8 | > 7.00 | 0.13 | N#Cc1ccc(CCNC(=O)[C@@H]2CCCN2c2cc(N3CCC(CCNC(=O)NCCC(=O)NCCS(=O)(=O)O)CC3)nc(C(F)(F)F)n2)cc1 [Compound 113, (S)-2-(3-(3-(2-(1-(6-(2-((4-cyanophenethyl)carbamoyl)pyrrolidin-1-yl)-2-(trifluromethyl)pyrimidin-4-yl)piperidin-4-yl)ethyl)ureido)-propanamido)-ethanesulfonic acid]
9 | > 7.00 | 48 | N#Cc1ccc(CCNC(=O)[C@@H]2CCN2c2cc(N3CCC(CCCC(=O)NC[C@@H](O)CO)CC3)nc(C(F)(F)F)n2)cc1 [Compound 261, (S)-N-(4-cyanophenethyl)-1-(6-(4-(4-(((R)-2,3-dihydroxypropyl)amino)-4-oxobutyl)piperidin-1-yl)-2-(trifluoromethyl)pyrimidin-4-yl)azetidine-2-carboxamide]
10 | > 7.00 | 1.7 | N#Cc1ccc(CCNC(=O)[C@@H]2CCCN2c2cc(N3CCC(CCNc4c(NCP(=O)(O)O)c(=O)c4=O)CC3)nc(C(F)(F)F)n2)cc1 [Compound 369, (S)-(((2-((2-(1-(6-(2-((4-cyanophenethyl)carbamoyl)pyrrolidin-1-yl)-2-(trifluoromethyl)pyrimidin-4-yl)piperidin-4-yl)ethyl)amino)-3,4-dioxocyclobut-1-en-1-yl)amino)methyl)phosphonic acid]
11 | > 7.00 | 5 | N#Cc1ccc(CCNC(=O)[C@@H]2CCN2c2cc(N3CCC(CCNC(=O)NCCOCCNC(=N)N)CC3)nc(C(F)(F)F)n2)cc1 [Compound 287, (S)-1-(6-(4-(1-amino-1-imino-9-oxo-5-oxa-2,8,10-triazadodecan-12-yl)piperidin-1-yl)-2-(trifluoromethyl)pyrimidin-4-yl)-N-(4-cyanophenethyl)azetidine-2-carboxamid]
12 | > 7.00 | 3.3 | N#Cc1ccc(CCNC(=O)[C@@H]2CCCN2c2cc(N3CCC(CCCC(=O)NCCS(=O)(=O)O)CC3)nc(C(F)(F)F)n2)cc1 [Compound 61, (S)-2-(4-(1-(6-(2-((4-cyanophenethyl)carbamoyl)pyrrolidin-1-yl)-2-(trifluoromethyl)pyrimidin-4-yl)-piperidin-4-yl)butanamido)ethanesulfonic acid]
13 | > 7.00 | 0.5 | N#Cc1ccc(CCNC(=O)[C@@H]2CCN2c2cc(N3CCC(CCNS(=O)(=O)CCNC(=O)[C@@H](N)CS(=O)(=O)O)CC3)nc(C(F)(F)F)n2)cc1 [Compound 363, (R)-2-amino-3-((2-(N-(2-(1-(6-((S)-2-((4-cyanophenethyl)carbamoyl)azetidin-1-yl)-2-(trifluoromethyl)pyrimidin-4-yl)piperidin-4-yl)ethyl)sulfamoyl)ethyl)amino)-3-oxopropane-1-sulfonic acid]
14 | > 7.00 | 13 | N#Cc1ccc(CCNC(=O)[C@@H]2CCN2c2cc(N3CCC(CCCC(=O)NCCOCCNC(=N)N)CC3)nc(C(F)(F)F)n2)cc1 [Compound 284, (S)-N-(4-cyanophenethyl)-1-(6-(4-(4-((2-(2-guanidinoethoxy)-ethyl)amino)-4-oxobutyl)piperidin-1-yl)-2-(trifluoromethyl)pyrimidin-4-yl)azetidine-2-carboxamide]
15 | > 7.00 | 4.2 | N#Cc1ccc(CCNC(=O)[C@@H]2CCN2c2cc(N3CCC(CCCC(=O)NCCNC(=N)N)CC3)nc(C(F)(F)F)n2)cc1 [Compound 282, (S)—N-(4-cyanophenethyl)-1-(6-(4-(4-((2-guanidinoethyl)amino)-4-oxobutyl)piperidin-1-yl)-2-(trifluoromethyl)pyrimidin-4-yl)azetidine-2-carboxamide]
16 | > 7.00 | 48 | O=C(CCC1CCN(c2cc(N3CC[C@H]3C(=O)NCCc3ccc(C(F)(F)F)cc3)nc(C(F)(F)F)n2)CC1)NCS(=O)(=O)O [Compound 253, (S)-(3-(1-(2-(trifluoromethyl)-6-(2-((4-(trifluoromethyl)phenethyl)-carbamoyl)azetidin-1-yl)pyrimidin-4-yl)piperidin-4-yl)propanamido)-methanesulfonic acid]
17 | > 7.00 | < 1 | N#Cc1ccc(CCNC(=O)[C@@H]2CCN2c2cc(N3CCC(CCNC(=O)NCCS(=O)(=O)O)CC3)nc(C(F)(F)F)n2)cc1 [Compound 271, (S)-2-(3-(2-(1-(6-(2-((4-cyanophenethyl)carbamoyl)azetidin-1-yl)-2-(trifluoromethyl)pyrimidin-4-yl)piperidin-4-yl)ethyl)ureido)-ethanesulfonic acid]
18 | > 7.00 | 1.3 | N#Cc1ccc(CCNC(=O)[C@@H]2CCCN2c2cc(N3CCC(CCCC(=O)NCCCS(=O)(=O)O)CC3)nc(C(F)(F)F)n2)cc1 [Compound 63, (S)-3-(4-(1-(6-(2-((4-cyanophenethyl)carbamoyl)pyrrolidin-1-yl)-2-(trifluoromethyl)pyrimidin-4-yl)-piperidin-4-yl)butanamido)propane-1-sulfonic acid]
19 | > 7.00 | 3.7 | N#Cc1ccc(CCNC(=O)[C@@H]2CCN2c2cc(N3CCC(CCNc4c(NCC(=O)O)c(=O)c4=O)CC3)nc(C(F)(F)F)n2)cc1 [Compound 302, (S)-2-((2-((2-(1-(6-(2-((4-cyanophenethyl)carbamoyl)azetidin-1-yl)-2-(trifluoromethyl)pyrimidin-4-yl)piperidin-4-yl)ethyl)amino)-3,4-dioxocyclobut-1-en-1-yl)amino)acetic acid]
20 | > 7.00 | 3.2 | N#Cc1ccc(CCNC(=O)[C@@H]2CCCN2c2cc(N3CCC(CCCC(=O)NCCC(=O)NC(CO)(CO)CO)CC3)nc(C(F)(F)F)n2)cc1 [Compound 109, (S)—N-(4-cyanophenethyl)-1-(6-(4-(4-((3-((1,3-dihydroxy-2-(hydroxymethyl)propan-2-yl)amino)-3-oxopropyl)amino)-4-oxobutyl)piperidin-1-yl)-2-(trifluoromethyl)-pyrimidin-4-yl)pyrrolidine-2-carboxamide]
